Source: BindingDB's records for doi:10.1021/acs.jmedchem.0c02069 (Indiana University, 2021)
Peptide text beside a SMILES is read from it.

Target: Glucagon receptor (Homo sapiens, UniProt P47871)
Assay: Displacement of 125I-glucagon from human GCGR expressed in HEK293 cells membranes incubated for 6 hrs by liquid scintillation counting method

Sequence of Glucagon receptor (P47871 whole entry): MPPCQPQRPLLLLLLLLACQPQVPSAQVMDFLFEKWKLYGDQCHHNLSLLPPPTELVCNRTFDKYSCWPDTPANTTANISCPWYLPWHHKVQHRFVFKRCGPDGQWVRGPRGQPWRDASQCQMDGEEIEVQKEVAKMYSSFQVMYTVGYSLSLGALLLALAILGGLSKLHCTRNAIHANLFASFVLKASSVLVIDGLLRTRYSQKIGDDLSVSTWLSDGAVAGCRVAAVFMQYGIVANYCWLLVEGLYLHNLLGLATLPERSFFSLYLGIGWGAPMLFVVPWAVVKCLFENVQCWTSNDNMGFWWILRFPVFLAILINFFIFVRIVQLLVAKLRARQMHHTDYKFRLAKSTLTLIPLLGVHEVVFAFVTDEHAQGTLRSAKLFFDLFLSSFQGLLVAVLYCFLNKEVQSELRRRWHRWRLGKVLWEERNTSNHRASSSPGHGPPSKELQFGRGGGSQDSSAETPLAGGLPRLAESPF

Structure (SMILES)	IC50
CSCC[C@H](NC(=O)[C@H](CC(C)C)NC(=O)[C@H](Cc1c[nH]c2ccccc12)NC(=O)[C@H](CCC(N)=O)NC(=O)[C@@H](NC(=O)[C@H](Cc1ccccc1)NC(=O)[C@H](CC(=O)O)NC(=O)[C@H](CCC(N)=O)NC(=O)[C@H](C)NC(=O)[C@H](CCCNC(=N)N)NC(=O)[C@H](CCCNC(=N)N)NC(=O)[C@H](CO)NC(=O)[C@H](CC(=O)O)NC(=O)[C@H](CC(C)C)NC(=O)[C@H](Cc1ccc(O)cc1)NC(=O)[C@H](CCCCN)NC(=O)[C@H](CO)NC(=O)[C@H](Cc1ccc(O)cc1)NC(=O)[C@H](CSCC(=O)O)NC(=O)[C@H](CO)NC(=O)[C@@H](NC(=O)[C@H](Cc1ccccc1)NC(=O)[C@@H](NC(=O)CNC(=O)[C@H](CCC(N)=O)NC(=O)[C@@H](N)CO)[C@@H](C)O)[C@@H](C)O)C(C)C)C(=O)N[C@@H](CC(N)=O)C(=O)N[C@H](C(N)=O)[C@@H](C)O	13 nM
CSCC[C@H](NC(=O)[C@H](CC(C)C)NC(=O)[C@H](Cc1c[nH]c2ccccc12)NC(=O)[C@H](CCC(N)=O)NC(=O)[C@@H](NC(=O)[C@H](Cc1ccccc1)NC(=O)[C@H](CC(=O)O)NC(=O)[C@H](CCC(N)=O)NC(=O)[C@H](C)NC(=O)[C@H](CCCNC(=N)N)NC(=O)[C@H](CCCNC(=N)N)NC(=O)[C@H](CO)NC(=O)[C@H](CC(=O)O)NC(=O)[C@H](CC(C)C)NC(=O)[C@H](Cc1ccc(O)cc1)NC(=O)[C@H](CCCCN)NC(=O)[C@H](CO)NC(=O)[C@H](Cc1ccc(O)cc1)NC(=O)[C@H](CCC(=O)O)NC(=O)[C@H](CO)NC(=O)[C@@H](NC(=O)[C@@H](O)Cc1ccccc1)[C@@H](C)O)C(C)C)C(=O)N[C@@H](CC(N)=O)C(=O)N[C@H](C(N)=O)[C@@H](C)O (HELM PEPTIDE1{[O=C([C@@H](O)Cc1ccccc1)[*:2]].T.S.E.Y.S.K.Y.L.D.S.R.R.A.Q.D.F.V.Q.W.L.M.N.T.[am]}$$$$V2.0)	12 nM
